Reference: patent publication US20050154061A1, “Acetic acid derivatives” (Bayer Aktiengesellschaft, priority 2001, published 2005)

Each compound was assayed against T1, GAL4-PPARδ chimera (Homo sapiens, UniProt Q03181) (assay: Cellular transactivation assay (luciferase reporter)). Conditions: CHO cells stably expressing GAL4-PPARδ chimera and luciferase reporter; 24 hours stimulation.
T1 construct: expressed in transfected cells
Assay type: cell-based
Source text: Cellular Transactivation Assay:
A cellular assay is used to identify activators of the peroxisome proliferator-activated receptor delta (PPAR-delta).
Since mammalian cells contain different endogenous nuclear receptors which may complicate an unambiguous interpretation of the results, an established chimera system is used in which the ligand binding domain of the human PPARδ receptor is fused to the DNA binding domain of the yeast transcription factor GAL4. The resulting GAL4-PPARδ chimera is co-transfected and stably expressed in CHO cells having a reporter construct.
The reporter construct, which contains five copies of the GAL4 binding site upstream of a thymidine kinase promoter, expresses firefly luciferase (Photinus pyralis) following activation and binding of GAL4-PPARδ.
Transactivation Assay (Luciferase Reporter):
CHO (chinese hamster ovary) cells are sown in CHO-A-SFM medium (GIBCO), supplemented by 2.5% foetal calf serum, 1% penicillin/streptomycin (GIBCO), at a cell density of 2×10^3 cells per well in a 384 well plate (Greiner). The cells are cultivated at 37° C. for 48 h and then stimulated. To this end, the substances to be tested are taken up in the abovementioned medium and added to the cells. After a stimulation period of 24 hours, the luciferase activity is measured using a video camera. The relative light units measured give, as a function of the substance concentration, a sigmoidal stimulation curve.

T1 sequence (Q03181 with tags, fused parts or gaps limits assumed): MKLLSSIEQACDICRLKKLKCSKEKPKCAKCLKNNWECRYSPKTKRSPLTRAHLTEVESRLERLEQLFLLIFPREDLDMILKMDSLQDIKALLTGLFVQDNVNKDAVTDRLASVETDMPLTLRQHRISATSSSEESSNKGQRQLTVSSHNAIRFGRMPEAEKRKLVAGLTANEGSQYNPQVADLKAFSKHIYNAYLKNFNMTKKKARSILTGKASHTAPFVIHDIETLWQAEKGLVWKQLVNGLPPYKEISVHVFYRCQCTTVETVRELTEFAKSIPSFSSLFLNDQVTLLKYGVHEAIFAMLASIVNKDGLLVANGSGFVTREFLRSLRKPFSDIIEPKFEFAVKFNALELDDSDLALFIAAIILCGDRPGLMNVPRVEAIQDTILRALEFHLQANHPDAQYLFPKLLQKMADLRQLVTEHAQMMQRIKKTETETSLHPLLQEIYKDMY

EC50, 1 to 100 nM:
Cc1cc(CN(CC(=O)Nc2ccc(Cl)cc2Cl)C2CCCCC2)ccc1OC(C)(C)C(=O)O [Example 1, 2-[4-[[[2-[(2,4-Dichlorophenyl)amino]-2-oxoethyl]cyclohexylamino]methyl]-2-methylphenoxy]-2-methylpropanoic Acid]
Cc1cc(CN(CC(=O)Nc2ccc(Cl)cc2Cl)C2CCCCC2)ccc1OCC(=O)O [Example 2, 2-[4-[[[2-[(2,4-Dichlorophenyl)amino]-2-oxoethyl]cyclohexylamino]methyl]-2-methylphenoxy]acetic Acid]
Cc1cc(CN(CC(=O)Nc2ccc(Cl)cc2Cl)C2C(C)CCC2C)ccc1OC(C)(C)C(=O)O (stereo not shown) [Example 3, 2-[4-[[[2-[(2,4-Dichlorophenyl)amino]-2-oxoethyl]-(2,5-dimethylcyclopentyl)amino]methyl]-2-methylphenoxy]-2-methylpropanoic Acid]
Cc1cc(CN(CCNc2ccc(Cl)cc2Cl)C2CCCCC2)ccc1OC(C)(C)C(=O)O [Example 4, 2-{4-[(Cyclohexyl{2-[(2,4-dichlorophenyl)amino]ethyl}amino)methyl]-2-methylphenoxy}-2-methylpropanoic Acid]
Cc1ccc(NC(=O)CN(Cc2ccc(OC(C)C(=O)O)c(C)c2)C2CCCCC2)c(C)c1 (stereo not shown) [Example 6, 2-[4-[[[2-[(2,4-Dimethylphenyl)amino]-2-oxoethyl]cyclohexylamino]methyl]-2-methylphenoxy]propanoic Acid]
Cc1cc(CN(CC(=O)Nc2ccc(Cl)cc2Cl)C2CCCC2)ccc1OC(C)C(=O)O (stereo not shown) [Example 8]
CC(C)(Oc1ccc(CN(CC(=O)Nc2ccc(Cl)cc2Cl)C2CCCC2)cc1)C(=O)O [Example 9]
